Assay results: EP3829564B1, “CURCUMIN AND HOMOTAURINE FOR USE IN PREVENTING OR TREATING COGNITIVE DECLINE FORMS” (ALERE VITAM S.R.L., priority 2018, dated 2020)

How the values were obtained:
[1] = target: T1, Aβ42 peptide (Homo sapiens, UniProt P05067); assay: Thioflavin-T assay for inhibition of Aβ 42 aggregation; type: biochemical
T1 construct: Beta-amyloid (Aβ 1-42) aggregation studies were conducted; purchased AnaSpec, Inc, Fremont, CA
Description: In the present study, the fluorescence spectroscopy with thioflavin T was used to examine the effects of curcumin (CUR), homotaurine (HOM) taken individually and a combination of the two compounds as disclosed herein on the formation of toxic Aβ aggregates.
Thioflavin-T (Th-T dosage), analysis for the inhibition of the Aβ 42 aggregation (also referred to AB42).
Beta-amyloid (Aβ 1-42) aggregation studies were conducted using the SensoLyte ThT Ab42 aggregation kit (AnaSpec, Inc, Fremont, CA).
The Aβ42 peptide was dissolved in a cold analysis buffer (4 °C) and allowed to hydrate for a few minutes. The solution was centrifuged at 10,000 rpm for 5 minutes at 4°C to centrifuge any precipitated material. The fibrillation reaction was initiated by adding thioflavin dye (ThT) at a concentration of 2 mmol/L.
Three test samples (CUR; HOM; CUR + HOM) were added in a volume of 5 µL and the reaction was started by adding the Aβ42 peptide solution. The final volume of the test samples was 100 µL. At the same time, the positive control and the negative control containing nordihydroguaiaretic acid (NDGA), a well-defined inhibitor of Ab aggregation, at the final concentration of 100 µmol/L were established. Fluorescence intensity was measured at 37°C with Ex/Em ¼ 440 nm/484 nm and by shaking of 15s between readings using the microplate reader (Synergy H1; BioTek, Winooski, VT). The fluorescence intensity measurements expressed as relative fluorescence units (RFU) were taken for 90 minutes at 5-minute intervals.

[2] = test system: heme oxygenase; assay: Heme oxygenase activity in treated cells; type: cell-based; details: same doses; 6 and 24 hours after administration
Description: (§1) To confirm that the expression of the HO-1 gene measured at the mRNA level corresponded to an equivalent increase in heme oxygenase activity, this activity was measured at the same doses of curcumin and homotaurine 6 and 24 hours after administration.

[3] = test system: HO-1; details: 6 hours; for increase in HO-1 mRNA: 5, 10, 15 and 30 µM, cortical neurons, astrocytes and endothelial cells; for concentration of maximum HO-1 mRNA: tested 5, 10, 15 and 30 µM
Description: as §1

[4] = test system: Nrf2; assay: Nrf2 protein expression in nuclear extracts (Western blot); type: cell-based, rat; details: 25 µM; for expression of the Nrf2 protein in nuclear extracts: cortical neurons, astrocytes and endothelial cells, over time, three independent Western blots
Description: Three different cell lines, cortical neurons, astrocytes and endothelial cells, were exposed to curcumin, homotaurine or a combination of the two compounds at the final concentration of 25 µM to evaluate the expression of the Nrf2 protein over time.
The rat hippocampal neurons (H 19-7) were purchased by the American Type Culture Collection (Manassas, VA, USA) and cultured according to the manufacturer's instructions.
The neurons were washed twice with 1X PBS. The cells were then collected in 1 ml of 1X PBS and centrifuged at 3000 rpm for 3 min at 4°C. The cell pellet was carefully resuspended in […] of cold buffer containing HEPES 10 mM (pH 7.9), KCI 10 mM, EDTA 0.1 mM, EGTA 0.1 mM, DTT 1 µM and complete protease inhibitor cocktail (Roche, Mannheim, Germany).
The pellet was then incubated on ice for 15 minutes to allow the cells to swell. After this time, 15 µl of 10% of NP-40 were added and the tube was vortexed for 10 s. The homogenate was then centrifuged at 3000 rpm for 3 min at 4°C and the nuclear pellet was resuspended in 30 µl of cold buffer consisting of HEPES 20 mM (pH 7.9), NaCl 0,4 M, EDTA 1 mM, EGTA 1 mM, DTT 1 µM and protease inhibitors. The pellet was then incubated on ice for 15 minutes and vortexed for 10-15 s every 2 minutes. The nuclear extract was finally centrifuged at 13,000 rpm for 5 minutes at 4°C. The supernatant containing the nuclear proteins was resolved with SDS-polyacrylamide gel and subjected to immunoblot analysis using anti-Nrf2 antibodies (dilution 1: 500) and anti-Sp1 (dilution 1: 500).

[5] = test system: HO-1; assay: cells; details: 6 h, read-out: maximum increase in HO-1 mRNA, relative to the non-inducible paralogue HO-2 gene
Description: as §1

[6] = target: Aβ40 (Homo sapiens, UniProt P05067); details: compared with ibuprofen and naproxen; cited from earlier work
[7] = test system: transgenic Alzheimer's mouse (Tg2576); details: dietary regime containing curcumin for 6 months; cited from earlier work
[8] = target: T2, Aβ42 oligomer (Homo sapiens, UniProt P05067); details: prior art statement; cited from earlier work
T2 construct: prevents the formation and the toxicity of Aβ42 oligomer

[9] = fibrillation time 30 min and 90 min, vs control

T1 sequence (P05067 672-713 limits assumed): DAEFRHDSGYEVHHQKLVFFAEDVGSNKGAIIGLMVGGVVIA
T2 sequence (P05067 672-713): as the sequence (P05067 672-713 limits assumed) above
Sequence of Aβ40 (P05067 672-711): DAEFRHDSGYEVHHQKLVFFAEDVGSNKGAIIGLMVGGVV

Compound: CC(Cc1ccc(O)c(O)c1)C(C)Cc1ccc(O)c(O)c1 (centres unmarked) [NDGA, nordihydroguaiaretic acid]
- Aβ aggregation (ThT fluorescence) ([1]; 100 µmol/L, control inhibitor): inhibitor of the Aβ aggregation (p <.001)

Compound: NCCCS(=O)(=O)O [homotaurine, 3-amino-1-propanesulfonic acid]
- Aβ aggregation (ThT fluorescence) [1, 9]: significantly influence the fibrillation reaction
- heme oxygenase activity [2]: comparable to the results obtained by looking at cellular mRNAs
- increase in HO-1 mRNA [3]: much less active in inducing the expression of the HO-1 gene
- concentration of maximum HO-1 mRNA [3]: 15 µM
- expression of the Nrf2 protein in nuclear extracts [4]: lower increase in nuclear Nrf2

Compound: COc1cc(C=CC(=O)CC(=O)C=Cc2ccc(O)c(OC)c2)ccc1O [curcumin, 1,7-bis [4-Hydroxy-3-methoxyphenyl]-1,6-heptadiene-3,5-dione]
- maximal fold induction at 15 µM [5]: ~6
- Aβ40 aggregation inhibition [6]: better than ibuprofen and naproxen
- Aβ aggregation (ThT fluorescence) [1, 9]: significantly influence the fibrillation reaction
- cognitive deficits induced by Aβ amyloid [7]: reverses the cognitive deficits induced by Aβ amyloid
- indices of oxidative damage and inflammation in the brain [7]: suppression of the indices of the oxidative damage and the inflammation in the brain
- heme oxygenase activity [2]: comparable to the results obtained by looking at cellular mRNAs
- increase in HO-1 mRNA [3]: dosedependent increase in HO-1 mRNA
- concentration of maximum HO-1 mRNA [3]: 15 µM
- concentration preventing formation and toxicity of Aβ42 oligomer [8]: 0.1 to 11.0 µM
- time Nrf2 expression remained upregulated ([4]; after treatment): up to 12 hours
- expression of the Nrf2 protein in nuclear extracts [4]: significant timedependent increase
